What was measured:
Experiment in all cases: relative viability (nuclei count vs DMSO), 5 days (fraction); higher = more cells survive
Sunitinib + Bortezomib = compound: CCN(CC)CCNC(=O)c1c(C)[nH]c(/C=C2\C(=O)Nc3ccc(F)cc32)c1C [Sunitinib] + CC(C)C[C@H](NC(=O)[C@H](Cc1ccccc1)NC(=O)c1cnccn1)B(O)O [Bortezomib] (partner 0.002 µM)
In short: (§1)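 Lung cancer cell lines were pin-tool dosed in 1536-well plates on the day after seeding, with either a lone drug or a fixed anchor-drug dose plus five library-drug doses (not always all listed) in √10 steps. Nuclei were counted on 4× images after 5 days. Relative viability is the ratio of treated-well to vehicle-well nuclei counts, with each value a median of duplicate plates.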

Sunitinib + AZD7762 = compound: CCN(CC)CCNC(=O)c1c(C)[nH]c(/C=C2\C(=O)Nc3ccc(F)cc32)c1C [Sunitinib] + NC(=O)Nc1cc(-c2cccc(F)c2)sc1C(=O)N[C@H]1CCCNC1 [AZD7762] (partner 0.2 µM)
In short: as §1

Sunitinib + Tozasertib = compound: CCN(CC)CCNC(=O)c1c(C)[nH]c(/C=C2\C(=O)Nc3ccc(F)cc32)c1C [Sunitinib] + Cc1cc(Nc2cc(N3CCN(C)CC3)nc(Sc3ccc(NC(=O)C4CC4)cc3)n2)n[nH]1 [Tozasertib] (partner 0.1 µM)
In short: as §1

Sunitinib + Decitabine = compound: CCN(CC)CCNC(=O)c1c(C)[nH]c(/C=C2\C(=O)Nc3ccc(F)cc32)c1C [Sunitinib] + Nc1ncn([C@H]2C[C@H](O)[C@@H](CO)O2)c(=O)n1 [Decitabine] (partner 2 µM)
In short: as §1

Cell Line: HARA
- relative viability (Sunitinib + Bortezomib; first compound 0.02 µM): 1
- relative viability (Sunitinib + Bortezomib; first compound 0.06325 µM): 1.17
- relative viability (Sunitinib + Bortezomib; first compound 0.2 µM): 1.32
- relative viability (Sunitinib + Bortezomib; first compound 0.6325 µM): 1.22
- relative viability (Sunitinib + Bortezomib; first compound 2 µM): 1.14
- relative viability (Sunitinib + AZD7762; first compound 0.02 µM): 0.355
- relative viability (Sunitinib + AZD7762; first compound 0.06325 µM): 0.337
- relative viability (Sunitinib + AZD7762; first compound 0.2 µM): 0.582
- relative viability (Sunitinib + AZD7762; first compound 0.6325 µM): 0.29
- relative viability (Sunitinib + AZD7762; first compound 2 µM): 0.301
- relative viability (Sunitinib + Tozasertib; first compound 0.02 µM): 0.105
- relative viability (Sunitinib + Tozasertib; first compound 0.06325 µM): 0.148
- relative viability (Sunitinib + Tozasertib; first compound 0.2 µM): 0.216
- relative viability (Sunitinib + Tozasertib; first compound 0.6325 µM): 0.076
- relative viability (Sunitinib + Tozasertib; first compound 2 µM): 0.0991
- relative viability (Sunitinib + Decitabine; first compound 0.02 µM): 0.506
- relative viability (Sunitinib + Decitabine; first compound 0.06325 µM): 0.604
- relative viability (Sunitinib + Decitabine; first compound 0.2 µM): 0.539
- relative viability (Sunitinib + Decitabine; first compound 0.6325 µM): 0.563
- relative viability (Sunitinib + Decitabine; first compound 2 µM): 0.586

Cell Line: PC-3 [JPC-3]
- relative viability (Sunitinib + Bortezomib; first compound 0.02 µM): 0.836
- relative viability (Sunitinib + Bortezomib; first compound 0.06325 µM): 0.88
- relative viability (Sunitinib + Bortezomib; first compound 0.2 µM): 0.893
- relative viability (Sunitinib + Bortezomib; first compound 0.6325 µM): 0.869
- relative viability (Sunitinib + Bortezomib; first compound 2 µM): 0.732
- relative viability (Sunitinib + AZD7762; first compound 0.02 µM): 0.844
- relative viability (Sunitinib + AZD7762; first compound 0.06325 µM): 0.79
- relative viability (Sunitinib + AZD7762; first compound 0.2 µM): 0.845
- relative viability (Sunitinib + AZD7762; first compound 0.6325 µM): 0.827
- relative viability (Sunitinib + AZD7762; first compound 2 µM): 0.865
- relative viability (Sunitinib + Tozasertib; first compound 0.02 µM): 0.912
- relative viability (Sunitinib + Tozasertib; first compound 0.06325 µM): 0.909
- relative viability (Sunitinib + Tozasertib; first compound 0.2 µM): 0.954
- relative viability (Sunitinib + Tozasertib; first compound 0.6325 µM): 0.936
- relative viability (Sunitinib + Tozasertib; first compound 2 µM): 0.867
- relative viability (Sunitinib + Decitabine; first compound 0.02 µM): 0.89
- relative viability (Sunitinib + Decitabine; first compound 0.06325 µM): 0.788
- relative viability (Sunitinib + Decitabine; first compound 0.6325 µM): 0.79
- relative viability (Sunitinib + Decitabine; first compound 2 µM): 0.764

Cell Line: LCLC-97TM1
- relative viability (Sunitinib + Bortezomib; first compound 0.02 µM): 0.653
- relative viability (Sunitinib + Bortezomib; first compound 0.06325 µM): 0.967
- relative viability (Sunitinib + Bortezomib; first compound 0.2 µM): 0.713
- relative viability (Sunitinib + Bortezomib; first compound 0.6325 µM): 0.774
- relative viability (Sunitinib + Bortezomib; first compound 2 µM): 0.757
- relative viability (Sunitinib + AZD7762; first compound 0.02 µM): 0.265
- relative viability (Sunitinib + AZD7762; first compound 0.06325 µM): 0.163
- relative viability (Sunitinib + AZD7762; first compound 0.2 µM): 0.234
- relative viability (Sunitinib + AZD7762; first compound 0.6325 µM): 0.224
- relative viability (Sunitinib + AZD7762; first compound 2 µM): 0.288
- relative viability (Sunitinib + Tozasertib; first compound 0.02 µM): 0.202
- relative viability (Sunitinib + Tozasertib; first compound 0.06325 µM): 0.214
- relative viability (Sunitinib + Tozasertib; first compound 0.2 µM): 0.268
- relative viability (Sunitinib + Tozasertib; first compound 0.6325 µM): 0.195
- relative viability (Sunitinib + Tozasertib; first compound 2 µM): 0.236
- relative viability (Sunitinib + Decitabine; first compound 0.02 µM): 0.232
- relative viability (Sunitinib + Decitabine; first compound 0.06325 µM): 0.225
- relative viability (Sunitinib + Decitabine; first compound 0.2 µM): 0.238
- relative viability (Sunitinib + Decitabine; first compound 0.6325 µM): 0.212
- relative viability (Sunitinib + Decitabine; first compound 2 µM): 0.223

Cell Line: LU99A
- relative viability (Sunitinib + Bortezomib; first compound 0.02 µM): 1
- relative viability (Sunitinib + Bortezomib; first compound 0.06325 µM): 1.13
- relative viability (Sunitinib + Bortezomib; first compound 0.2 µM): 1.15
- relative viability (Sunitinib + Bortezomib; first compound 0.6325 µM): 1.35
- relative viability (Sunitinib + Bortezomib; first compound 2 µM): 1.12
- relative viability (Sunitinib + AZD7762; first compound 0.02 µM): 0.334
- relative viability (Sunitinib + AZD7762; first compound 0.06325 µM): 0.311
- relative viability (Sunitinib + AZD7762; first compound 0.2 µM): 0.343
- relative viability (Sunitinib + AZD7762; first compound 0.6325 µM): 0.325
- relative viability (Sunitinib + AZD7762; first compound 2 µM): 0.368
- relative viability (Sunitinib + Tozasertib; first compound 0.02 µM): 0.296
- relative viability (Sunitinib + Tozasertib; first compound 0.06325 µM): 0.285
- relative viability (Sunitinib + Tozasertib; first compound 0.2 µM): 0.267
- relative viability (Sunitinib + Tozasertib; first compound 0.6325 µM): 0.273
- relative viability (Sunitinib + Tozasertib; first compound 2 µM): 0.273
- relative viability (Sunitinib + Decitabine; first compound 0.02 µM): 0.792
- relative viability (Sunitinib + Decitabine; first compound 0.06325 µM): 0.836
- relative viability (Sunitinib + Decitabine; first compound 0.2 µM): 1.02
- relative viability (Sunitinib + Decitabine; first compound 0.6325 µM): 0.995
- relative viability (Sunitinib + Decitabine; first compound 2 µM): 0.734

Cell Line: NCI-H1666
- relative viability (Sunitinib + Bortezomib; first compound 0.02 µM): 0.867
- relative viability (Sunitinib + Bortezomib; first compound 0.2 µM): 1.01
- relative viability (Sunitinib + Bortezomib; first compound 0.6325 µM): 0.839
- relative viability (Sunitinib + Bortezomib; first compound 2 µM): 0.86
- relative viability (Sunitinib + AZD7762; first compound 0.02 µM): 0.782
- relative viability (Sunitinib + AZD7762; first compound 0.06325 µM): 1.02
- relative viability (Sunitinib + AZD7762; first compound 0.2 µM): 0.907
- relative viability (Sunitinib + AZD7762; first compound 0.6325 µM): 0.895
- relative viability (Sunitinib + AZD7762; first compound 2 µM): 0.886
- relative viability (Sunitinib + Tozasertib; first compound 0.02 µM): 0.676
- relative viability (Sunitinib + Tozasertib; first compound 0.06325 µM): 0.685
- relative viability (Sunitinib + Tozasertib; first compound 0.2 µM): 0.719
- relative viability (Sunitinib + Tozasertib; first compound 0.6325 µM): 0.655
- relative viability (Sunitinib + Tozasertib; first compound 2 µM): 0.71
- relative viability (Sunitinib + Decitabine; first compound 0.02 µM): 0.905
- relative viability (Sunitinib + Decitabine; first compound 0.06325 µM): 0.884
- relative viability (Sunitinib + Decitabine; first compound 0.2 µM): 0.738
- relative viability (Sunitinib + Decitabine; first compound 0.6325 µM): 0.698
- relative viability (Sunitinib + Decitabine; first compound 2 µM): 0.735

Cell Line: A-427
- relative viability (Sunitinib + Bortezomib; first compound 0.06325 µM): 0.987
- relative viability (Sunitinib + Bortezomib; first compound 0.2 µM): 0.976
- relative viability (Sunitinib + Bortezomib; first compound 0.6325 µM): 0.986
- relative viability (Sunitinib + Bortezomib; first compound 2 µM): 0.936
- relative viability (Sunitinib + AZD7762; first compound 0.02 µM): 0.773
- relative viability (Sunitinib + AZD7762; first compound 0.06325 µM): 0.761
- relative viability (Sunitinib + AZD7762; first compound 0.2 µM): 0.777
- relative viability (Sunitinib + AZD7762; first compound 0.6325 µM): 0.711
- relative viability (Sunitinib + AZD7762; first compound 2 µM): 0.679
- relative viability (Sunitinib + Tozasertib; first compound 0.02 µM): 0.225
- relative viability (Sunitinib + Tozasertib; first compound 0.06325 µM): 0.233
- relative viability (Sunitinib + Tozasertib; first compound 0.2 µM): 0.219
- relative viability (Sunitinib + Tozasertib; first compound 0.6325 µM): 0.213
- relative viability (Sunitinib + Tozasertib; first compound 2 µM): 0.194
- relative viability (Sunitinib + Decitabine; first compound 0.02 µM): 0.547
- relative viability (Sunitinib + Decitabine; first compound 0.06325 µM): 0.591
- relative viability (Sunitinib + Decitabine; first compound 0.2 µM): 0.57
- relative viability (Sunitinib + Decitabine; first compound 0.6325 µM): 0.539
- relative viability (Sunitinib + Decitabine; first compound 2 µM): 0.625

Cell Line: ChaGo-K-1
- relative viability (Sunitinib + Bortezomib; first compound 0.02 µM): 1.04
- relative viability (Sunitinib + Bortezomib; first compound 0.06325 µM): 1.03
- relative viability (Sunitinib + Bortezomib; first compound 0.2 µM): 1.03
- relative viability (Sunitinib + Bortezomib; first compound 0.6325 µM): 0.977
- relative viability (Sunitinib + Bortezomib; first compound 2 µM): 1.05
- relative viability (Sunitinib + AZD7762; first compound 0.02 µM): 0.892
- relative viability (Sunitinib + AZD7762; first compound 0.06325 µM): 0.885
- relative viability (Sunitinib + AZD7762; first compound 0.2 µM): 0.984
- relative viability (Sunitinib + AZD7762; first compound 0.6325 µM): 0.915
- relative viability (Sunitinib + AZD7762; first compound 2 µM): 0.88
- relative viability (Sunitinib + Tozasertib; first compound 0.02 µM): 0.211
- relative viability (Sunitinib + Tozasertib; first compound 0.06325 µM): 0.209
- relative viability (Sunitinib + Tozasertib; first compound 0.2 µM): 0.209
- relative viability (Sunitinib + Tozasertib; first compound 0.6325 µM): 0.237
- relative viability (Sunitinib + Tozasertib; first compound 2 µM): 0.191
- relative viability (Sunitinib + Decitabine; first compound 0.02 µM): 0.511
- relative viability (Sunitinib + Decitabine; first compound 0.06325 µM): 0.485
- relative viability (Sunitinib + Decitabine; first compound 0.2 µM): 0.533
- relative viability (Sunitinib + Decitabine; first compound 0.6325 µM): 0.537
- relative viability (Sunitinib + Decitabine; first compound 2 µM): 0.555

Cell Line: NCI-H23
- relative viability (Sunitinib + Bortezomib; first compound 0.02 µM): 0.871
- relative viability (Sunitinib + Bortezomib; first compound 0.06325 µM): 1.45
- relative viability (Sunitinib + Bortezomib; first compound 0.2 µM): 1.17
- relative viability (Sunitinib + Bortezomib; first compound 0.6325 µM): 1.44
- relative viability (Sunitinib + Bortezomib; first compound 2 µM): 0.945
- relative viability (Sunitinib + AZD7762; first compound 0.02 µM): 0.287
- relative viability (Sunitinib + AZD7762; first compound 0.06325 µM): 0.281
- relative viability (Sunitinib + AZD7762; first compound 0.2 µM): 0.36
- relative viability (Sunitinib + AZD7762; first compound 0.6325 µM): 0.226
- relative viability (Sunitinib + AZD7762; first compound 2 µM): 0.241
- relative viability (Sunitinib + Tozasertib; first compound 0.06325 µM): 0.37
- relative viability (Sunitinib + Tozasertib; first compound 0.2 µM): 0.499
- relative viability (Sunitinib + Tozasertib; first compound 0.6325 µM): 0.341
- relative viability (Sunitinib + Tozasertib; first compound 2 µM): 0.264
- relative viability (Sunitinib + Decitabine; first compound 0.02 µM): 0.293
- relative viability (Sunitinib + Decitabine; first compound 0.06325 µM): 0.351
- relative viability (Sunitinib + Decitabine; first compound 0.2 µM): 0.328
- relative viability (Sunitinib + Decitabine; first compound 0.6325 µM): 0.307
- relative viability (Sunitinib + Decitabine; first compound 2 µM): 0.329

From the supplement of paper PMC10307832
